Assay results published in patent US8663912B2, “Fluorogenic substrate for ADAMTS13” (Washington University, priority 2011, dated 2014).
“And” between values parts separate entries of the source, which are not always exact repeats. Equal values may be shown once. * marks the point of attachment. X1 = CC1(C)C(/C=C/C2=C(Cl)C(=C/C=C3/N(CCCCCC(=O)*)c4ccc5cc(S(=O)(=O)O)ccc5c4C3(C)C)/CCC2)=[N+](CCCS(=O)(=O)[O-])c2ccc(N(CCCS(=O)(=O)O)CCCS(=O)(=O)O)cc21; X2 = CC(C)(C)c1cc(/C=C/C=C2\N(CCCS(=O)(=O)O)c3ccc(S(=O)(=O)O)cc3C2(C)CCCC(=O)CCN2C(=O)CC(*)C2=O)c2ccc(N(CCCS(=O)(=O)[O-])CCCS(=O)(=O)O)cc2[o+]1

Target: T1, ADAMTS13 (Homo sapiens, UniProt Q76LX8)
T1 sequence (Q76LX8 75-1427): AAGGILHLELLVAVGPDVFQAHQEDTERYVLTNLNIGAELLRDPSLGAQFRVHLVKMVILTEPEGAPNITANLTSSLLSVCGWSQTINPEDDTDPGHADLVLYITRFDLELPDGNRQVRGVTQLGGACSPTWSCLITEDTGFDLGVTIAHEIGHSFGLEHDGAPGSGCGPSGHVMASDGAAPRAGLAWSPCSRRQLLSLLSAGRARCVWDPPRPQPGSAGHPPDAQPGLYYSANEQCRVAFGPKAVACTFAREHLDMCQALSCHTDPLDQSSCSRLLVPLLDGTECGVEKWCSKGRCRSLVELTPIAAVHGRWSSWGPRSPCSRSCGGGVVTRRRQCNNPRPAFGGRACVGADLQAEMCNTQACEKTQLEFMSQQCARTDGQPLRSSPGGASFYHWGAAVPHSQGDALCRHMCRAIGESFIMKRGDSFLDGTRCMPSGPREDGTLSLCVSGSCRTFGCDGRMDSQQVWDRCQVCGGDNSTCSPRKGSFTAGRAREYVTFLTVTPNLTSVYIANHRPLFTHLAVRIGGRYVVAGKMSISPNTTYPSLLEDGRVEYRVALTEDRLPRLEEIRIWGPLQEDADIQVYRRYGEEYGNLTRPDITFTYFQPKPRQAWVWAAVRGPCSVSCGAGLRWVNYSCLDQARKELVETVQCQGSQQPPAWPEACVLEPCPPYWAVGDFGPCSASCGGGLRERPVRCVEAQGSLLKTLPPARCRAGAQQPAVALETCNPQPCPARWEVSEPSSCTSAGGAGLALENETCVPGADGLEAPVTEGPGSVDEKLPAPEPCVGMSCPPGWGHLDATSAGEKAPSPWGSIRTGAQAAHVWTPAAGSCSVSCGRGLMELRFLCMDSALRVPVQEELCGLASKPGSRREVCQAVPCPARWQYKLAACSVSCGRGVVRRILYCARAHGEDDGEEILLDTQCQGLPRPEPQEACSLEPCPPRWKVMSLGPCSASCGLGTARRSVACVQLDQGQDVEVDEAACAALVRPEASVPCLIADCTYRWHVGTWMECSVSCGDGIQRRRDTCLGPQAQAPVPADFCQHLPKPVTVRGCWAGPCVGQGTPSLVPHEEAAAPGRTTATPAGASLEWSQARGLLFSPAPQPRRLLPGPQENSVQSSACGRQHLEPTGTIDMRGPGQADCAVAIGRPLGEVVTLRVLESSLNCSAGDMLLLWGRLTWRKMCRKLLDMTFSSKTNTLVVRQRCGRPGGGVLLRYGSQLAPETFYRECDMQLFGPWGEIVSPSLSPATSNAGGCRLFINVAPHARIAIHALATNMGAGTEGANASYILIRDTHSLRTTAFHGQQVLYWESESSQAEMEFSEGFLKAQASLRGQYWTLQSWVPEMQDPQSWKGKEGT
Assay: Fluorogenic ADAMTS13 activity assay, signal and sensitivity compared between substrates
Format: biochemical
Design: from tissue; host or cells: human plasma (TTP patients, healthy controls)
Experimental: In these experiments, the FRETS-rVWF71 substrate was utilized in a microtiter format (FIG. 2), which is compatible with fluorescence plate readers that are supported by laboratory equipment suppliers and available in many clinical hemostasis laboratories, such as the BIO-TEK FLx800 Fluorometer from DiaPharma (West Chester, Ohio) or Technoclone (Vienna). Reactions were performed in 200 μL 5 mM Bis-Tris, pH 6, 25 mM CaCl2, at room temperature with added plasma as shown (FIG. 2). Fluorescence was monitored in a Victor^2 V microplate reader (Perkin Elmer Life Sciences, Boston, Mass.) with 638 nm excitation filter and 658 nm emission filter.
Using 1 μM substrate with varying amounts of plasma or serum and optimal filters for each substrate, ΔF/min for VWF-rFRETS71 is 8-fold greater compared to VWF-FRETS73. In addition, assays with VWF-rFRETS71 are linear with time and linear with enzyme up to >95% serum or plasma added, with no significant background fluorescence or interference from blood constituents. The combination of stronger fluorescence signal and compatibility with undiluted plasma make FRETS-rVWF71 ˜250-fold more sensitive than FRETS-VWF73.
Assays were performed at 30° C. Samples (100 μL) of plasma or serum, diluted as necessary in assay buffer, were pipetted in duplicate in 96 well white microplates (Optiplate-96, PerkinElmer, Waltham, Mass.). Reaction was initiated by addition of 100 μL substrate in assay buffer. Cleavage of FRETS-rVWF71 was detected as an increase in fluorescence compared to control reactions without added enzyme at 2 min intervals using a Victor^2V Multilabel Counter (PerkinElmer, Waltham, Mass.) or Synergy H1 Hybrid Multi-Mode Microplate Reader (Biotek, Winooski, Vt.) equipped with 635±10 nm excitation and 660±10 nm emission filters. Initial velocities were determined by fitting progress curves to the polynomial ΔF=A+Bt+Ct^2, where ΔF is the change in fluorescence, t is time, A is the y-intercept, B is the initial velocity (slope), and the term Ct^2 accounts for any decline in velocity due to substrate consumption or photobleaching.
ADAMTS13 assays with the FRETS-VWF73 substrate (Kokame, K., et al. Br. J. Haematol. 129:93-100, 2005) (Peptide International, Louisville, Ky.) were performed according to the manufacturer's instructions. Hemoglobin was prepared by hypotonic lysis of red blood cells from a voluntary donor and quantified with Drabkin's reagent (Sigma, St. Louis, Mo.).
Results with FRETS-rVWF71 and FRETS-VWF73 assayed under standard conditions (Kokame, K., et al. Br. J. Haematol. 129:93-100, 2005) correlated well with an inter-assay CV of 3.8%. Using 1 μM substrate and 5 μL PNP, the change in fluorescence (ΔF/min) for FRETS-rVWF71 (50 mM HEPES, pH 7.4, 150 mM NaCl) was 8-fold greater than for FRETS-VWF73 (5 mM Bis-Tris, pH 6).

## X1-GQAPNLVYMVTGC(X2)PASDEIRRLPGDIQVVPIGVGPNANVQELERIGWPNAPILIQDFETLPREAPDLVLQR [FRETS-rVWF71]
1 μM substrate, 5 μL PNP, FRETS-rVWF71 in 50 mM HEPES pH 7.4, 150 mM NaCl, FRETS-VWF73 in 5 mM Bis-Tris pH 6
  change in fluorescence (ΔF/min) greater than for FRETS-VWF73: 8 fold
1 μM substrate, varying amounts of plasma or serum, optimal filters for each substrate
  ΔF/min greater compared to FRETS-VWF73: 8 fold
Equal concentrations of plasma as the enzyme source
  assay sensitivity relative to FRETS-VWF73: approximately 8 fold
Stronger fluorescence signal combined with undiluted plasma
  overall sensitivity relative to FRETS-VWF73: ~250 fold and 240 fold
Use in undiluted plasma
  further increase of sensitivity relative to FRETS-VWF73: 30 fold
